The text below walks through data of patent US20190151289A1, “Identification of Small Molecule Inhibitors of Jumonji AT-Rich Interactive Domain 1A (JARID1A) Histone Demethylase” (YALE UNIVERSITY, priority 2016, published 2019).

One experiment deals with T1, full-length FLAG-KDM5A (Homo sapiens, UniProt P29375).
T1 construct: Sf21 insect cells were infected with baculovirus to express full-length FLAG-KDM5A; made in house; host or cells: Sf21 insect cells (baculovirus)
In words: AlphaScreen KDM5A demethylation assay (bio-H3K4me3 peptide). The format is biochemical. Conditions: for hit in KDM5A inhibitor screen: compounds at 20 μM, hit threshold ~30% inhibition. The protocol: (§1) Histone demethylase assays were performed using previously described methods (Sayegh et al., 2013, J. Biol. Chem. 9408-9417), with the exception of all enzyme reactions containing 125 μM α-KG. Enzymes were used at the following approximate concentrations in validation experiments, chosen based on their activity in AlphaScreen assays: 19 nM FLAG-KDM5A, 15 nM FLAG-KDM5B, 6 nM FLAG-KDM5C, 29 nM His-FLAG-KDM6A, and 16 nM FLAG-KDM6B. 24 nM FLAG-KDM5A was used for Km determination experiments. Reactions were carried out for 1 hour, or were stopped by addition of 30 mM EDTA every 5 minutes for determining enzyme kinetics. Km values were calculated using the Michaelis-Menten non-linear regression analysis on GraphPad Prism 6.0 software. The concentration of DMSO in demethylation reactions was 0.05%. For reactions with catalase, catalase (Sigma C30) or an equal volume of dilution buffer was added to the peptide-containing buffer before addition of the demethylase. The final concentration of catalase in the reactions was 0.01 mg/ml.
(§2) The AlphaScreen general IgG (protein A) detection kit from PerkinElmer Life Sciences was used as described previously (Sayegh et al., 2013, J. Biol. Chem. 9408-9417). The luminescence emission was recorded at 570 nm using the AlphaScreen optic module on a Pherastar (BMG Labtech) or Envision (PerkinElmer Life Sciences) microplate reader.
8,861 compounds from the ChemBridge MW-Set, ChemBridge DIVERSet, MicroSource Gen-Plus, MicroSource Pure Natural Products, NIH Clinical Collection, and Enzo Epigenetics libraries were screened for inhibition of FLAG-KDM5A demethylase activity. Compounds were dissolved in DMSO and added at 20 μM to 384-well white plates (Corning 3574) containing 64 nM bio-H3K4me3 peptide in demethylase buffer prior to addition of 13 nM FLAG-KDM5A. Hits were selected at a threshold of three standard deviations (˜30% inhibition). A counter-screen was performed with the hits to eliminate any non-specific compounds. For this, 20 μM compounds were added to 64 nM bio-H3K4me2 peptide in demethylase buffer with no enzyme. Any hits that interfered with the positive signal detection were eliminated. Dose-response curves were performed on selected hits using 0.1-11 μM of compound. Further validation of top hits was performed using 5 μM of each compound or a dose-response curve using 0.05-50 μM of the compound.
Fresh compounds were ordered to confirm identity. IC50 curves were generated for YUKA1 and YUKA2 using 0.05-50 μM compound in 1 hour reactions. IC50 values were calculated by log transformation and non-linear regression log (inhibitor) versus response (three parameters) using Graphpad Prism 6.0 software. Percent activity of KDM5A was calculated for each data point by subtracting the background (average H3K4me3 signal) and dividing by the average signal for the DMSO controls. α-KG competition tests were performed using 150 nM H3K4me3 peptide and 50 μM Fe(II).
AlphaScreen technology (Perkin Elmer) was utilized to perform a screen for small molecule inhibitors of KDM5A. The assay was comprised of two steps, a demethylation reaction followed by detection of the product. A biotinylated H3K4me3 peptide was used as substrate in the demethylation reaction with KDM5A in the presence or absence of small molecule inhibitors. The presence of peptide product (H3K4me1/2) was detected using a product-specific antibody and beads. For this, acceptor beads coated in protein A bound to the antibody, which recognized the peptide product. Donor beads coated in streptavidin bound biotin on the peptide substrate. […]

A further experiment addresses T2, KDM5C (Homo sapiens, UniProt P41229).
T2 construct: FLAG; made in house
In words: AlphaScreen KDM5C demethylation assay. It counts as biochemical. The protocol: as §1, §2

Experiment [1] concerns H3K4 methylation in HeLa cells. Description: Western blot of global H3K4 methylation, HeLa. It counts as cell-based, human. The conditions noted are these: HeLa and MCF7 cell lines, western blot. Here is the method: Sf21 insect cells were cultured at 27° C. in Grace's medium (Gibco) with 10% fetal bovine serum (FBS) and 1% penicillin/streptomycin. HeLa cells were cultured in DMEM (Gibco) with 10% FBS and 1% penicillin/streptomycin. BT474, MCF7, MDA-MB-231, PC9 and ZR-75-1 cells were cultured in RPMI 1640 (Gibco) with 10% FBS and 1% penicillin/streptomycin. MCF10A cells were cultured as using previously described methods (Sayegh et al., 2013, J. Biol. Chem. 9408-9417). All human cells were cultured at 37° C. and 5% carbon dioxide. HeLa and MCF7 cell lines were authenticated using short tandem repeat profiling performed at the DNA Analysis Facility on Science Hill at Yale University. All other human cell lines used were within 10 passages after being obtained from the American Type Culture Collection.
Cells were lysed using previously described methods (Lin et al., 2011, Proc. Natl. Acad. Sci. U.S.A. 108:13379-13386). Histones were separated by centrifugation, resuspended in Laemmeli buffer, and sonicated. Protein concentration of cell lysates was measured by Bradford assay. Samples in Laemmeli buffer were boiled 10 minutes at 95° C. and loaded onto 7% (whole cell lysates) or 18% (histones) SDS-PAGE gels. Membranes were blocked in 4% non-fat milk in Tris-buffered saline with 0.05% Tween (TBS-T) and incubated with primary antibodies in the same buffer or 5% bovine serum albumin in TBS-T overnight at 4° C. Membranes were incubated with secondary anti-rabbit or anti-mouse antibodies for one hour at room temperature. Blots were visualized by Thermo Scientific Pierce ECL Western Blotting Substrate (32106) or EMD Millipore Immobilon Western Chemiluminescent HRP Substrate (WBKLS0100) on film. Signal was quantified using ImageJ software.

[2] abbreviates: inhibitors found by high throughput screening, read-out: KDM5A IC50.

Like-named read-outs stand apart in the source and are kept apart here.

T1 sequence (P29375 whole entry): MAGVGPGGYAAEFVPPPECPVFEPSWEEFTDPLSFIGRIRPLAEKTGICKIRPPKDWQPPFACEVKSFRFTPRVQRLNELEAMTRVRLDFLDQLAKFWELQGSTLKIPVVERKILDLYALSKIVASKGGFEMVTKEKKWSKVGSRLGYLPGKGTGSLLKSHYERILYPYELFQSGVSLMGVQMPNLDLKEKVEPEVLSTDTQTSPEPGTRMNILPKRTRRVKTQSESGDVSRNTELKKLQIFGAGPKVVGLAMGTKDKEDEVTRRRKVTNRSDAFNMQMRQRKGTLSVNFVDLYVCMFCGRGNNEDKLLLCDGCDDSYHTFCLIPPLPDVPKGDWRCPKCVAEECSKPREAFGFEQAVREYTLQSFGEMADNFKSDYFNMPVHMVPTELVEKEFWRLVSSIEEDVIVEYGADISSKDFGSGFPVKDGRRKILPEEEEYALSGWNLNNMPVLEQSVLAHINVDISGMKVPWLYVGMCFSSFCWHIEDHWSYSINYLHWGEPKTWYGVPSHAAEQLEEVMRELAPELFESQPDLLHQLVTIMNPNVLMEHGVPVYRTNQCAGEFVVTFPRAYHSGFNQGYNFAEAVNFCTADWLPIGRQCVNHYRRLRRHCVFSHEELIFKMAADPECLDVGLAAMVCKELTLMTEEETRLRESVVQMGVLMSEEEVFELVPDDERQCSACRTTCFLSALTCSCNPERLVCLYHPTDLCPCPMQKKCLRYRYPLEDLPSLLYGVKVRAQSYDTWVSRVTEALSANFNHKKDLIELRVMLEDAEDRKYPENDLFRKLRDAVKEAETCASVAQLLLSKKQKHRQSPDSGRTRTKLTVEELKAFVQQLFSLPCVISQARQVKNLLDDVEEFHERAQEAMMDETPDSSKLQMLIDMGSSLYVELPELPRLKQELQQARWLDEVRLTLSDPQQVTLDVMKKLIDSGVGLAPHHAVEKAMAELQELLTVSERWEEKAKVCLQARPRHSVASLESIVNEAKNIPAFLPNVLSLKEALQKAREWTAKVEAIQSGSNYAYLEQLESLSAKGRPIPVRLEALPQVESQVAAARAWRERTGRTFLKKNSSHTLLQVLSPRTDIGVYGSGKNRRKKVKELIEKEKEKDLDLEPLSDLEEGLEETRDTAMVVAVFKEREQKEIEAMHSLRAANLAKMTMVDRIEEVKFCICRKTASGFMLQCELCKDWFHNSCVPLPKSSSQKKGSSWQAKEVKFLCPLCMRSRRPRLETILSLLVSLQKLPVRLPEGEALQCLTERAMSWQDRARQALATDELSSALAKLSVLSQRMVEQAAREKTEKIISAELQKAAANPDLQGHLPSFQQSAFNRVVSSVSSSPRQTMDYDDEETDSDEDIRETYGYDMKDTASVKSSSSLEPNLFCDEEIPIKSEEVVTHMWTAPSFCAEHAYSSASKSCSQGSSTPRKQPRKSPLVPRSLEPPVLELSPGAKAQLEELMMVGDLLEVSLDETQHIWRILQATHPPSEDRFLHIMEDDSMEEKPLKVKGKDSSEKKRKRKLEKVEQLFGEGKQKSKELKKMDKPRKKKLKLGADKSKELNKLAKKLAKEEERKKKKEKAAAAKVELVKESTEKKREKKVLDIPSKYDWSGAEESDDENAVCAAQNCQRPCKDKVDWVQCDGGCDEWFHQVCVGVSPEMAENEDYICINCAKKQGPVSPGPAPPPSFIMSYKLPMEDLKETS
T2 sequence (P41229 whole entry): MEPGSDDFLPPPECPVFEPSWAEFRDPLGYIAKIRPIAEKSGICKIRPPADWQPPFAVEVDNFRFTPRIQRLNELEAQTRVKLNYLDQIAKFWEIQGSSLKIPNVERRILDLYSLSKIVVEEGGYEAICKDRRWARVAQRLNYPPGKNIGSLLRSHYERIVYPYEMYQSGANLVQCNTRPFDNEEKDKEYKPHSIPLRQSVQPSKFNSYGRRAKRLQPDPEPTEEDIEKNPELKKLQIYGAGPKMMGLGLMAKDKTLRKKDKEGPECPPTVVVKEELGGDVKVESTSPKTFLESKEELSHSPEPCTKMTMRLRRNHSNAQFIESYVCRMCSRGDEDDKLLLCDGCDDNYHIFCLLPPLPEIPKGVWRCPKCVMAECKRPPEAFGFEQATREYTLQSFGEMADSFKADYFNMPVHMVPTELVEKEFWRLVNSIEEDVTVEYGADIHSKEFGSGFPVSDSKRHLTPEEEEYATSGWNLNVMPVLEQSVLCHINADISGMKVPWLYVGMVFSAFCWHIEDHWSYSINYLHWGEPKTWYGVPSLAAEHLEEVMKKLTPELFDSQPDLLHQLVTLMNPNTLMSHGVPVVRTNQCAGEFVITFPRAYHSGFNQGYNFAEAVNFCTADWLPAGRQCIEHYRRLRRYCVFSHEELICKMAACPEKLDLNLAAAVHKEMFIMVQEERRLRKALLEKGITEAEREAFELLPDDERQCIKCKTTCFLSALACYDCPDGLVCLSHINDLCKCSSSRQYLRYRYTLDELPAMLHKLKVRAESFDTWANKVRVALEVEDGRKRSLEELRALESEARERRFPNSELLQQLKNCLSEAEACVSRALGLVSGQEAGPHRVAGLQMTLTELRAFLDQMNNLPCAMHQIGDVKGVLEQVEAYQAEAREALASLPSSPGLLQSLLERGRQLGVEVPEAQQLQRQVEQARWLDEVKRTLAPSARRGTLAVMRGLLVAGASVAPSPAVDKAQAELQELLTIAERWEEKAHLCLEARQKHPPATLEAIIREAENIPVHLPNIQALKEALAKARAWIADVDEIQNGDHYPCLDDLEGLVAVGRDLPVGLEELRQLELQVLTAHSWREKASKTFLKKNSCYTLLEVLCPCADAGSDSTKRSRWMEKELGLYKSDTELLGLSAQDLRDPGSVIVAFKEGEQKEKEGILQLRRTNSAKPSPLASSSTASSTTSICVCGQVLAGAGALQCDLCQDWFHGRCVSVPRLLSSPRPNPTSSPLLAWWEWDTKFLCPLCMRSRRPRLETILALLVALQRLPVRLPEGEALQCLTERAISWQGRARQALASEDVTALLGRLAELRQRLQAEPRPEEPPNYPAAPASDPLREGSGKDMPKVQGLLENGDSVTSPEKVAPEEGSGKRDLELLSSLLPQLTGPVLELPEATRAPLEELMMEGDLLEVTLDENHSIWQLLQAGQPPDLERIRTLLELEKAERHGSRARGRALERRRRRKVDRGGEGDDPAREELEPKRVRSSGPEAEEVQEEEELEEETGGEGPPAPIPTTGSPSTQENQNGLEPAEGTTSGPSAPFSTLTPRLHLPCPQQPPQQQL

`C=CCn1c(S)nnc1CNC(=O)c1cccc(C)c1` [YUKA2, N-[(4-allyl-5-mercapto-4H-1,2,4-triazol-3-yl)methyl]-3-methylbenzamide]: the “mode of KDM5A inhibition with respect to Fe(II)” value on full-length FLAG-KDM5A is given as “uncompetitive with respect to Fe(II)”. Further, the “KDM5A enzyme inhibition at low Fe(II)” value on full-length FLAG-KDM5A (5 μM Fe(II)) is on record as “too weak to generate robust IC50 curves”. Besides, the “effect of catalase on inhibitory potency against KDM5A” value at full-length FLAG-KDM5A (0.01 mg/ml catalase) was “did not affect the inhibitory potency”. The half-maximal inhibitory concentration (IC50) at full-length FLAG-KDM5A (0.05-50 μM compound, 1 hour reactions, read-out: average in vitro IC50 against KDM5A) stood at 1320 nM; at full-length FLAG-KDM5A (setting [2]) it was 2660 nM. Besides, the “change of KDM5A IC50 with α-KG concentration” value at full-length FLAG-KDM5A (16-fold range of α-KG, 150 nM H3K4me3 peptide, 50 μM Fe(II)) is reported as “did not change significantly”. Further, on KDM5C, the “fold less active against KDM5C (vs KDM5A)” value is recorded as around 5 fold. For the same molecule, in experiment [1], the “cell activity by global H3K4 methylation changes” value was “but not YUKA2, was cell-active”.
For `C[C@@](Cc1ccc(O)c(O)c1)(NN)C(=O)O` [carbidopa, reference compound], on full-length FLAG-KDM5A, the “hit in KDM5A inhibitor screen” value is on record as “among the active hits in the screen”.
On the same count and under the same terms, in the case of `O=C(O)/C=C/c1ccc(O)c(O)c1` [caffeic acid, reference compound] it was “among the active hits in the screen”.
Regarding `COc1cccc(Cc2nnc(S)n2-c2ccc(Cl)cc2)c1` [YU017175, 4-(4-chlorophenyl)-5-(3-methoxybenzyl)-4H-1,2,4-triazole-3-thiol], on full-length FLAG-KDM5A (setting [2]), the IC50 was 57 nM.
Consider `CCn1c(S)nnc1CNC(=O)c1cccc(C)c1` [YU126648, N-((4-ethyl-5-mercapto-4H-1,2,4-triazol-3-yl)methyl)-3-methylbenzamide], for which the IC50 at full-length FLAG-KDM5A (setting [2]) was found to be 159 nM.
`Cc1ccc(-n2sc3ccccc3c2=O)cc1` [PBIT, 2-4(4-methylphenyl)-1,2-benzisothiazol-3(2H)-one, reference compound]: the “hit in KDM5A inhibitor screen” value at full-length FLAG-KDM5A is on record as “among the active hits in the screen”.
`C=CCn1c(S)nnc1-c1cccnc1` [YU125526, 4-allyl-5-(pyridin-3-yl)-4H-1,2,4-triazole-3-thiol]: the IC50 on full-length FLAG-KDM5A (setting [2]) came out at 197 nM.
Consider `O=C(O)c1ccnc(C(=O)O)c1` [2,4-PDCA, 2,4-pyridinedicarboxylic acid, reference compound], for which, at full-length FLAG-KDM5A, the “hit in KDM5A inhibitor screen” value is given as “among the active hits in the screen”.
As to `Cc1cccc(-n2c(C)nnc2S)c1` [YU128402, 5-methyl-4-(m-tolyl)-4H-1,2,4-triazole-3-thiol], the IC50 at full-length FLAG-KDM5A (setting [2]) turned out to be 79 nM.
Still for that read-out and setting: in the case of `CCCCSCCc1nnc(S)n1-c1ccccc1` [YU149596, 5-(2-(butylthio)ethyl)-4-phenyl-4H-1,2,4-triazole-3-thiol] it was 169 nM.
For `N[C@@H](Cc1ccc(O)c(O)c1)C(=O)O` [levodopa, reference compound], the “hit in KDM5A inhibitor screen” value on full-length FLAG-KDM5A is given as “among the active hits in the screen”.
Turning to `COc1cccc(Cc2nnc(S)n2Cc2ccco2)c1` [YU017176, 4-(furan-2-ylmethyl)-5-(3-methoxybenzyl)-4H-1,2,4-triazole-3-thiol], on full-length FLAG-KDM5A (setting [2]), the IC50 was 1760 nM.
